Like-named read-outs stand apart in the source and are kept apart here.
Test system: THR (ANGPTL4, CPT1A, DIO1 RNA in Huh-7 cells)
Assay: Differential gene expression assay in Huh-7 cells
Assay type: cell-based, human
Conditions: for EC50: Homo sapiens; for fold less potent than T3: CPT1A transcription in Huh-7
Experimental: Hepatoma-derived Huh-7 cells (JCRB Cell Bank, JCRB0403) were obtained directly from the repository, which performed cell line authentication via isozyme analysis and comprehensively tested for microbial contamination, viral contamination, and cross culture contamination. Cells were routinely cultured in DMEM (Corning, 10-013-CM) supplemented with 10% FBS and 1% P/S at 37°C and 5% CO2 until 80–90% confluency. Cells were then detached with 0.05% trypsin (Corning, 25-052-CV), resuspended in TH-free medium (DMEM supplemented with 10% TH-depleted FBS and 1% P/S), and seeded into collagen-coated, 96-well microplates (Corning, 354407) at 5.0 x 10^4 cells/well. After 24 hrs, the culture medium was replaced with treatment media. Cells were treated for 24 hrs. TH-depletion of the FBS via resin treatment was accomplished as previously described. All treatment media were made by mixing test compounds, serially diluted in DMSO, with TH-free medium (0.1% final DMSO concentration).
After 24 hrs in treatment media, both Huh-7 cells and PHH were processed with the TaqMan Fast Advanced Cells-to-Ct Kit (Invitrogen, A35378), according to the manufacturer’s protocol. Briefly, the treatment media was removed and the cells were washed with 50 μL cold 1X phosphate-buffered saline (Corning, 21-040-CM). Fifty μL lysis buffer containing DNase I was added to each well and the plate was incubated on a rotor at RT for 5 mins. Five μL stop solution was then added to each well and after another 2 mins incubation on a rotor at RT, the cell lysates were used for reverse transcription. The resulting cDNA was diluted 1:2 with nuclease-free, distilled water (Invitrogen, 10977015). Gene expression was measured using TaqMan Fast Advanced Master Mix (Applied Biosystems, 4444964) and the following TaqMan Gene Expression assays (Applied Biosystems, 4331182): 18S (Hs99999901_s1), ACTB (Hs01060665_g1), ANGPTL4 (Hs01101123_g1), CPT1A (Hs00912671_m1), DIO1 (Hs00174944_m1), TFG (Hs02832013_g1), THRA (Hs00268470_m1), and THRB (Hs00230861_m1). ACTB and TFG served as control housekeeping genes for Huh-7 assays and 18S and ACTB for PHH assays. Ten μL reactions were run on the qTOWER³ 84 (Analytik Jena). Relative quantification (RQ) of gene expression was calculated via the 2^−ΔΔCt method and dose-response curves were fitted by non-linear regression with variable slope. Statistical analysis was performed in GraphPad Prism 8.
We aimed to develop an in vitro, cell-based assay that is not only amenable to high throughput screening of compounds, but that can also more reliably recapitulate in vivo processes. Because activated THR may function as a transcription factor, we compared the action of THR agonists in a human hepatocyte-derived cell line and in primary human hepatocytes (PHH) by quantifying transcriptional changes resulting from compound treatment (Fig 2A). Cells were cultured in TH-depleted media for 24 hrs and then treated with compounds for 24 hrs. The RNA levels of THR target genes were then measured via RT-qPCR.

[1] = Huh-7, CPT1A RNA, RT-qPCR, 24 hrs treatment, read-out: Huh-7 EC50 Mean ± SEM

For `Cc1cc(OCP(=O)(O)O)cc(C)c1Cc1ccc(O)c(C(C)C)c1` [VK2809A], the “fold less potent than T3” value was “approximately 30 fold” and the EC50 [1] was 8.3 ± 2.2 nM.

With `Cc1cc(OCP2(=O)OCC[C@@H](c3cccc(Cl)c3)O2)cc(C)c1Cc1ccc(O)c(C(C)C)c1` (stereo partly drawn) [VK2809] the “fold less potent than T3” value was ~2,000 fold, the EC50 [1] was 589 ± 120 nM and the “times weaker than VK2809A” value (Huh-7 assay) was 71 times.

Source: publication PMC7732128, “Regulation of gene transcription by thyroid hormone receptor β agonists in clinical development for the treatment of non-alcoholic steatohepatitis (NASH)” (PLoS ONE, 2020)
